# Results reported in paper PMC10744608, “Simplified Synthesis of Renieramycin T Derivatives to Target Cancer Stem Cells via β-Catenin Proteasomal Degradation in Human Lung Cancer” (Marine Drugs, 2023).
# Key:
# A549 cells [1] = experiment: MTT cell viability assay; type: cell-based, human; conditions: A549, 24 h treatment
# Protocol: (§1) The cell viability was assessed using an MTT assay, determining the half-maximal inhibitory concentration (IC50) to screen right-half RT analogs (DH_18, DH_21, DH_32, DH_35, DH_38, and DH_39). Human NSCLC cells (A549, H23, and H292) were seeded in a 96-well cell culture plate at a density of 1 × 10^4 cells per well and incubated for 24 h at 37 °C. Subsequently, the culture medium was aspirated, and a complete medium with varying concentrations (0–100 μM) of right-half RT analogs was added for 24 h. Following the removal of the compound-containing medium, an MTT reagent at a concentration of 4 mg/mL was applied and incubated for 3 h at 37 °C. The MTT reagent was replaced with 100 μL of DMSO to dissolve the formazan crystals. The measurement of the formazan product was conducted at 570 nm utilizing a microplate reader. RT served as the positive control in this experiment.
# H23 cells [2] = experiment: MTT cell viability assay; type: cell-based, human
# Protocol: as §1
# H292 cells = experiment: Immunoprecipitation of β-catenin–ubiquitin complex; type: cell-based, human; conditions: H292, 50 nM, compared to cells treated with RT
# Protocol: (§2) The DH_32-treated A549, H23, and H292 cells were collected using cold PBS and incubated on ice in a lysis buffer. This buffer consisted of 50 mM 4-(2-hydroxyethyl)-1-piperazineethanesulfonic acid at pH 7.5, 150 mM NaCl, 5 mM EDTA, 1% Triton X-100, 1 mM phenylmethylsulfonyl fluoride, and 2 μg/mL pepstatin A (catalog no: 9803, Cell Signaling), along with complete protease inhibitor cocktail tablets from the EASYpack (Roche, catalog no: 04693116001). The incubation took place for 40 min on ice, followed by centrifugation at 12,000× g at 4 °C for 15 min.
# (§3) Subsequently, immunoprecipitation was carried out using the Dynabeads™ Protein G Immunoprecipitation Kit from Thermo Fisher Scientific Inc. (Waltham, MA, USA). The magnetic beads were prepared and added to 100 μL of Ab binding and washing buffer that contained β-catenin (2 μL) for 15 min on rotation at room temperature. The complex of magnetic beads and antibodies was re-suspended in a protein lysis buffer and left to incubate at 4 °C overnight, facilitating the binding of the β-catenin antigen with the magnetic bead–antibody complex. The magnetic bead–Ab–Ag complex was washed three times using 200 μL of washing buffer. The magnetic bead–antibody–antigen complex was resuspended in the lysis buffer (30 μL), and the 6x sample buffer (5 μL) was denatured by heating at 95 °C for 5 min. The antigen–antibody complex was loaded onto a 12% sodium dodecyl sulfate polyacrylamide gel electrophoresis (SDS-PAGE). Following gel separation, the proteins were transferred onto a nitrocellulose membrane with a pore size of 0.45 μm. After transfer, the membrane was placed in a mixture containing 5% nonfat dry milk in TBST (composed of 25 mm Tris-HCl, pH 7.4, 125 mm NaCl, and 0.05% Tween 20) for a duration of 1 h 30 min. Following this, the proteins were exposed to primary antibodies (Cell Signaling), specifically ubiquitin mouse mAb (cat no: 14049), and left to incubate overnight at 4 °C. […] Protein intensity was analyzed by using ImageJ software (Image J 1.52a, Rasband, W., National Institutes of Health, USA). […]
# A549 cells [3] = experiment: Immunoprecipitation of β-catenin–ubiquitin complex; type: cell-based, human; conditions: A549, 50 nM, compared to cells treated with RT
# Protocol: as §2, §3
# H23 cells [4] = experiment: Immunoprecipitation of β-catenin–ubiquitin complex; type: cell-based, human; conditions: H23, 50 nM, compared to cells treated with RT
# Protocol: as §2, §3
# [5] = tested on: CSC spheroids of A549, H23, and H292 cells; experiment: 3D CSC spheroid formation with immunofluorescence; type: cell-based, human; conditions: 50 nM; for levels of CD133, CD44, and OCT4 in CSC spheroids: 24 h, immunofluorescence
# Protocol: A three-dimensional (3D) spheroid was employed to generate the spheroids containing CSC subpopulations from lung cancer cells. For CSC-rich population establishment, the spheroid culture assay used in this study was slightly modified from a previously described method. Lung cancer cells, specifically NSCLC cells (A549, H23, and H292), were seeded onto a 24-well ultra-low attachment plate, with approximately density of 2.5 × 10^3 cells per well in a medium with a 1% FBS and Nutristem mix. The primary spheroids were allowed to form for 7 days. Every 2 days, fresh medium with 1% FBS and Nutristem mix was replenished. On day 7 of primary spheroid culture, primary spheroids were resuspended into single cells using trypsin, and again 2.5 × 10^3 cells/well were seeded into a 24-well ultra-low attachment plate. Secondary spheroids were allowed to form for 10 days. After 10 days, the secondary spheroids were treated with 50 nM concentration DH_32 for 24 h treatment. The spheroids that had undergone treatment were retrieved through centrifugation at 1000× g for 30 s and then rinsed with PBS. The spheroids were fixed with 4% paraformaldehyde in a 50 μL PBS solution for 20 min at room temperature, and then they were made permeable by treating them with 0.1% Triton X in PBS for 5 min at room temperature. The spheroids were exposed to a mixture of 5% FBS and 2% BSA in PBS for 1 h at room temperature to prevent non-specific protein interactions. Subsequently, the spheroids were incubated with primary antibodies (CD133, CD44, and OCT4) at a 1:250 dilution in a 30 μL PBS solution containing 2.5% FBS and 1% BSA, and this incubation took place overnight at 4 °C. On the subsequent day, the spheroids were rinsed with PBS and then exposed to secondary antibodies (Alexa Fluor 594-conjugated goat anti-rabbit IgG (H+L) and Alexa Fluor 488-conjugated goat anti-mouse IgG (H+L)) at a 1:500 dilution in a 30 μL PBS solution containing 2.5% FBS and 1% BSA at room temperature for 1 h 30 min. These spheroids were subjected to staining with Hoechst 33342 (Sigma, St. Louis, MO, USA) at a concentration of 10 μg/mL for a duration of 15 min at room temperature. Subsequently, the fluorescence signals were observed using a fluorescence microscope (Olympus IX 51 with DP70; Olympus America Inc., Center Valley, PA, USA). The intensity of fluorescence was quantified using Image J software. NSCLC spheroids treated with RT at 50 nM and cisplatin at 50 nM served as the positive control.
# [6] = tested on: human dermal papilla cells (DP); experiment: MTT cell viability assay, normal cells; type: cell-based; conditions: for IC50: DP normal cells, 24 h treatment, MTT
SMILES,IC50 (A549 cells [1]; Homo sapiens) [µM],"IC50 (H23 cells [2]; Homo sapiens, NCI-H23, H23, 24 h treatment) [µM]",increase in level of β-catenin–ubiquitin complex (H292 cells) [fold],increase in level of β-catenin–ubiquitin complex (A549 cells [3]) [fold],increase in level of β-catenin–ubiquitin complex (H23 cells [4]),size of spheroid formations [5],"levels of CD133, CD44, and OCT4 in CSC spheroids [5]",selectivity index (SI) ([6]; DP cells versus A549),selectivity index (SI) ([6]; DP cells versus H23),selectivity index (SI) ([6]; DP cells versus H292),"IC50 ([6]; Homo sapiens, Human dermal papilla cell) [µM]",IC50 (A549 cells [1]) [µM],"IC50 (H23 cells [2]; H23, 24 h treatment) [µM]",IC50 [6] [µM]
"COC1=C(C)C(=O)C2=C(C1=O)[C@@H]1CN(Cc3ccc4ccccc4c3)[C@@H](C#N)[C@H](C2)N1C [DH_32, (1R,4R,5S)-9-methoxy-8,11-dimethyl-3-(naphthalen-2-ylmethyl)-7,10-dioxo-1,2,3,4,5,6,7,10-octahydro-1,5-epiminobenzo[d]azocine-4-carbonitrile]",4.06 ± 0.24,2.07 ± 0.11,3.5,2.5,two-fold increase,decreased,dramatic decrease,8.42,16.51,23.40,34.2 ± 1.22,,,
"CC=C(C)C(=O)OCC1c2c(c(O)c(C)c3c2OCO3)CC2C3C4=C(CC(C(C#N)N12)N3C)C(=O)C(C)=C(OC)C4=O (stereo not drawn) [RT, Renieramycin T]",,,,,,,lesser effects,,,,,5.76 ± 0.23,2.93 ± 0.07,13.7 ± 0.33
